Data: ChEMBL document CHEMBL5724914, “Linking interpersonal differences in gut microbiota composition and drug biotransformation activity” (2024)

assay: (§1) The drug is tested on WLS-082 corresponding to human gut metagenome with ENA study accession number: PRJEB37062 and ENA sample accession number: ERS12561751 for biotransformation under anaerobic condition. The drug concentrations were measured over 9 timepoints collected between 0 and 24 hours of incubation by liquid-chromatography-coupled mass spectrometry (LC–MS); conditions: 2 µM
Note: call rule not given here.

Structure (SMILES) | Bacterial Biotransformation
Cc1cc(C)cc(OCC2CNC(=O)O2)c1 (stereo not given) [METAXALONE] | Compound metabolized
COC(=O)C(c1ccccc1)C1CCCCN1 (stereo not given) [METHYLPHENIDATE] | Compound NOT metabolized

assay: as §1, with “WLS-039” for “WLS-082”, “ERS12561746” for “ERS12561751”; conditions: 2 µM

Structure (SMILES) | Bacterial Biotransformation
Cc1cc(C)cc(OCC2CNC(=O)O2)c1 (stereo not given) [METAXALONE] | Compound metabolized
COC(=O)C(c1ccccc1)C1CCCCN1 (stereo not given) [METHYLPHENIDATE] | Compound NOT metabolized

conditions: human gut metagenome, 24 h, 2 µM

Structure (SMILES) | Bacterial Biotransformation
Cc1cc(C)cc(OCC2CNC(=O)O2)c1 (stereo not given) [METAXALONE] | Compound metabolized
COC(=O)C(c1ccccc1)C1CCCCN1 (stereo not given) [METHYLPHENIDATE] | Compound NOT metabolized

assay: as §1, with “Z-014” for “WLS-082”, “rat” for “human”, “ERS12561814” for “ERS12561751”; conditions: 2 µM

Structure (SMILES) | Bacterial Biotransformation
Cc1cc(C)cc(OCC2CNC(=O)O2)c1 (stereo not given) [METAXALONE] | Compound NOT metabolized
COC(=O)C(c1ccccc1)C1CCCCN1 (stereo not given) [METHYLPHENIDATE] | Compound NOT metabolized

conditions: human gut metagenome, 24 h, 2 µM; remark: another data set of the same source

Structure (SMILES) | Bacterial Biotransformation
Cc1cc(C)cc(OCC2CNC(=O)O2)c1 (stereo not given) [METAXALONE] | Compound metabolized
COC(=O)C(c1ccccc1)C1CCCCN1 (stereo not given) [METHYLPHENIDATE] | Compound metabolized

assay: as §1, with “WLS-027” for “WLS-082”, “ERS12561744” for “ERS12561751”; conditions: 2 µM

Structure (SMILES) | Bacterial Biotransformation
Cc1cc(C)cc(OCC2CNC(=O)O2)c1 (stereo not given) [METAXALONE] | Compound metabolized
COC(=O)C(c1ccccc1)C1CCCCN1 (stereo not given) [METHYLPHENIDATE] | Compound metabolized

assay: as §1, with “WLS-090” for “WLS-082”, “ERS12561753” for “ERS12561751”; conditions: 2 µM

Structure (SMILES) | Bacterial Biotransformation
Cc1cc(C)cc(OCC2CNC(=O)O2)c1 (stereo not given) [METAXALONE] | Compound metabolized
COC(=O)C(c1ccccc1)C1CCCCN1 (stereo not given) [METHYLPHENIDATE] | Compound metabolized

assay: as §1, with “Z-017” for “WLS-082”, “mouse” for “human”, “ERS12561816” for “ERS12561751”; conditions: 2 µM

Structure (SMILES) | Bacterial Biotransformation
Cc1cc(C)cc(OCC2CNC(=O)O2)c1 (stereo not given) [METAXALONE] | Compound metabolized
COC(=O)C(c1ccccc1)C1CCCCN1 (stereo not given) [METHYLPHENIDATE] | Compound NOT metabolized

conditions: human gut metagenome, 24 h, 2 µM; remark: another data set of the same source

Structure (SMILES) | Bacterial Biotransformation
Cc1cc(C)cc(OCC2CNC(=O)O2)c1 (stereo not given) [METAXALONE] | Compound metabolized
COC(=O)C(c1ccccc1)C1CCCCN1 (stereo not given) [METHYLPHENIDATE] | Compound metabolized

conditions: human gut metagenome, 24 h, 2 µM; remark: another data set of the same source

Structure (SMILES) | Bacterial Biotransformation
Cc1cc(C)cc(OCC2CNC(=O)O2)c1 (stereo not given) [METAXALONE] | Compound metabolized
COC(=O)C(c1ccccc1)C1CCCCN1 (stereo not given) [METHYLPHENIDATE] | Compound NOT metabolized

assay: as §1, with “Z-019” for “WLS-082”, “rat” for “human”, “ERS12561818” for “ERS12561751”; conditions: 2 µM

Structure (SMILES) | Bacterial Biotransformation
Cc1cc(C)cc(OCC2CNC(=O)O2)c1 (stereo not given) [METAXALONE] | Compound NOT metabolized
COC(=O)C(c1ccccc1)C1CCCCN1 (stereo not given) [METHYLPHENIDATE] | Compound NOT metabolized

assay: as §1, with “Z-018” for “WLS-082”, “pig” for “human”, “ERS12561817” for “ERS12561751”; conditions: 2 µM

Structure (SMILES) | Bacterial Biotransformation
Cc1cc(C)cc(OCC2CNC(=O)O2)c1 (stereo not given) [METAXALONE] | Compound NOT metabolized
COC(=O)C(c1ccccc1)C1CCCCN1 (stereo not given) [METHYLPHENIDATE] | Compound metabolized

assay: as §1, with “Z-010” for “WLS-082”, “to” for “to human gut”, “ERS12561810” for “ERS12561751”; conditions: 2 µM

Structure (SMILES) | Bacterial Biotransformation
Cc1cc(C)cc(OCC2CNC(=O)O2)c1 (stereo not given) [METAXALONE] | Compound NOT metabolized
COC(=O)C(c1ccccc1)C1CCCCN1 (stereo not given) [METHYLPHENIDATE] | Compound NOT metabolized

assay: as §1, with “Z-021” for “WLS-082”, “to” for “to human gut”, “ERS12561820” for “ERS12561751”; conditions: 2 µM

Structure (SMILES) | Bacterial Biotransformation
Cc1cc(C)cc(OCC2CNC(=O)O2)c1 (stereo not given) [METAXALONE] | Compound NOT metabolized
COC(=O)C(c1ccccc1)C1CCCCN1 (stereo not given) [METHYLPHENIDATE] | Compound metabolized

assay: as §1, with “Z-001” for “WLS-082”, “mouse” for “human”, “ERS12561801” for “ERS12561751”; conditions: 2 µM

Structure (SMILES) | Bacterial Biotransformation
Cc1cc(C)cc(OCC2CNC(=O)O2)c1 (stereo not given) [METAXALONE] | Compound NOT metabolized
COC(=O)C(c1ccccc1)C1CCCCN1 (stereo not given) [METHYLPHENIDATE] | Compound metabolized

conditions: human gut metagenome, 24 h, 2 µM; remark: another data set of the same source

Structure (SMILES) | Bacterial Biotransformation
Cc1cc(C)cc(OCC2CNC(=O)O2)c1 (stereo not given) [METAXALONE] | Compound metabolized
COC(=O)C(c1ccccc1)C1CCCCN1 (stereo not given) [METHYLPHENIDATE] | Compound NOT metabolized

assay: as §1, with “WLS-086” for “WLS-082”, “ERS12561752” for “ERS12561751”; conditions: 2 µM

Structure (SMILES) | Bacterial Biotransformation
Cc1cc(C)cc(OCC2CNC(=O)O2)c1 (stereo not given) [METAXALONE] | Compound metabolized
COC(=O)C(c1ccccc1)C1CCCCN1 (stereo not given) [METHYLPHENIDATE] | Compound NOT metabolized

assay: as §1, with “WLS-170” for “WLS-082”, “ERS12561762” for “ERS12561751”; conditions: 2 µM

Structure (SMILES) | Bacterial Biotransformation
Cc1cc(C)cc(OCC2CNC(=O)O2)c1 (stereo not given) [METAXALONE] | Compound metabolized
COC(=O)C(c1ccccc1)C1CCCCN1 (stereo not given) [METHYLPHENIDATE] | Compound metabolized

conditions: human gut metagenome, 24 h, 2 µM; remark: another data set of the same source

Structure (SMILES) | Bacterial Biotransformation
Cc1cc(C)cc(OCC2CNC(=O)O2)c1 (stereo not given) [METAXALONE] | Compound metabolized
COC(=O)C(c1ccccc1)C1CCCCN1 (stereo not given) [METHYLPHENIDATE] | Compound NOT metabolized

assay: as §1, with “Z-005” for “WLS-082”, “to” for “to human gut”, “ERS12561805” for “ERS12561751”; conditions: 2 µM

Structure (SMILES) | Bacterial Biotransformation
Cc1cc(C)cc(OCC2CNC(=O)O2)c1 (stereo not given) [METAXALONE] | Compound NOT metabolized
COC(=O)C(c1ccccc1)C1CCCCN1 (stereo not given) [METHYLPHENIDATE] | Compound NOT metabolized
